In publication PMC4957648 (Journal of medicinal chemistry, 2016):
In brackets after ≈: the same amount, converted by molar mass.

Tests used:
Cif [1] = molecular target: T1, Cif (Pseudomonas aeruginosa, UniProt A0A0H2ZD27); experiment: Surface plasmon resonance binding to immobilized Cif
thyroid hormone receptor = experiment: Thyroid hormone activity assay, agonist mode; type: cell-based; conditions: for EC50: read-out: TR agonist EC50, GH3.TRE-Luc cells
Cif [2] = molecular target: T1, Cif; experiment: Fluorescent-based Cif inhibitory assay; type: biochemical
Human sEH = molecular target: T2, Human sEH (Homo sapiens, UniProt P34913); experiment: biochemical
T2 sequence (P34913 1-555): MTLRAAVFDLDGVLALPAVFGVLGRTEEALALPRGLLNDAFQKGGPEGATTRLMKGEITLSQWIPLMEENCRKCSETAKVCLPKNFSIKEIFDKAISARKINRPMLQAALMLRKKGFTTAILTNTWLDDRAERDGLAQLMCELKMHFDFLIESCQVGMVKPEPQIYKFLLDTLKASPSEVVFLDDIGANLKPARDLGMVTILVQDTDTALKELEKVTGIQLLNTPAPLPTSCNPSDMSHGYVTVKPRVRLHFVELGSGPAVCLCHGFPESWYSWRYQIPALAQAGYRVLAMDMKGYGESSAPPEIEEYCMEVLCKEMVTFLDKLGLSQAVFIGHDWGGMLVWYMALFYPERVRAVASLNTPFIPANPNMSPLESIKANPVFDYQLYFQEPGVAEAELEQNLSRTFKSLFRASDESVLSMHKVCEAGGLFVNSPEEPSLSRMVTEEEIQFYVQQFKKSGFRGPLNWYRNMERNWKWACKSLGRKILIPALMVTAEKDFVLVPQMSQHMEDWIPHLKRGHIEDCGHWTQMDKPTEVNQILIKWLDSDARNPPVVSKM

GH3.TRE-Luc cells = experiment: Cytotoxicity in GH3.TRE-Luc cells; type: cell-based; conditions: concentrations up to 10 μM
[3] = test system: polarized monolayers of airway epithelial cells; experiment: Cytotoxicity in polarized airway epithelial monolayers; type: cell-based; conditions: concentrations up to 10 μM
[4] = Solubility under Cif assay conditions; type: physicochemical
[5] = Human liver microsomal stability; type: in vitro ADME; conditions: liver microsomes
CFTR = conditions: from purified Cif protein and P. aeruginosa PA14; ref 5b; cited from earlier work

T1 sequence (A0A0H2ZD27 25-319 limits assumed): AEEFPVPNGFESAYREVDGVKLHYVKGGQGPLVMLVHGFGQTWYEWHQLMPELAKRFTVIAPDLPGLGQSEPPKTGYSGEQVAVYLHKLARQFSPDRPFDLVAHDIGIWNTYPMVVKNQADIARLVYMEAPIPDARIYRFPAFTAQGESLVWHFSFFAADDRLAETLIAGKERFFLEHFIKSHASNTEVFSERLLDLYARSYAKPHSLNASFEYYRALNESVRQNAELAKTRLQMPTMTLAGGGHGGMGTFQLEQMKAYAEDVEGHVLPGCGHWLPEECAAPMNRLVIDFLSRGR

SMILES | residence time (Cif [1]) | EC50 (thyroid hormone receptor) | increase in Cif inhibitory potency over lead compound (Cif [2]) | solubility [4] | also measured
CCC(=O)Nc1cc(Cl)c(Oc2ccc(O)c(-c3ccc(C(C)=O)cc3)c2)c(Cl)c1 [Compound 8j] | 0.0333 to 0.0667 min | > 10 µM | ~10 fold | – | –
CCC(=O)Nc1cc(Cl)c(Oc2ccc(O)c(-c3ccc(NC(N)=O)cc3)c2)c(Cl)c1 [Compound 8h] | 0.0333 to 0.0667 min | > 10 µM | ~10 fold | – | IC50 (Human sEH): ~8 µM; cytotoxicity (GH3.TRE-Luc cells): neither 8c nor 8h showed cytotoxicity; cytotoxicity [3]: neither 8c nor 8h showed cytotoxicity
CCOC(=O)CC(=O)Nc1cc(Cl)c(Oc2ccc(O)cc2)c(Cl)c1 [Compound 1k] | – | – | – | 50 to 100 µM (≈ 19.2 to 38.4 µg/mL) | Cif inhibitory activity (Cif [2]; at 50 μM): no inhibition
CCC(=O)Nc1cc(Br)c(Oc2ccc(O)c(C(C)C)c2)c(Br)c1 [Compound 1c] | – | – | – | – | thyroid hormone activity (compounds with different R1) (thyroid hormone receptor): lowest thyroid hormone activity
CCC(=O)Nc1cc(Cl)c(Oc2ccc(O)c(-c3ccccc3)c2)c(Cl)c1 [Compound 8a] | – | – | – | – | half-life [5]: > 1 h
O=C(O)Cc1cc(I)c(Oc2ccc(O)c(I)c2)c(I)c1 [tiratricol] | – | – | – | – | protection of CFTR (CFTR): protects CFTR
CCC(=O)Nc1cc(Cl)c(Oc2ccc(O)c(-c3ccc(C(N)=O)cc3)c2)c(Cl)c1 [Compound 8c, 5′-(2,6-Dichloro-4-propionamidophenoxy)-2′-hydroxy-[1,1′-biphenyl]-4-carboxamide] | 0.0333 to 0.0667 min | > 10 µM | ~10 fold | – | IC50 (Human sEH): ~8 µM; cytotoxicity (GH3.TRE-Luc cells): neither 8c nor 8h showed cytotoxicity; cytotoxicity [3]: neither 8c nor 8h showed cytotoxicity
CCOC(=O)CC(=O)Nc1cc(Br)c(Oc2cccc(C(C)C)c2)c(Br)c1 [Compound 1g] | – | – | – | 50 to 100 µM (≈ 25 to 49.9 µg/mL) | Cif inhibitory activity (Cif [2]; at 50 μM or 25 μM): failed to show inhibitory activity
CCOC(=O)CC(=O)Nc1cc(Br)c(Oc2ccc(OC)c(C(C)C)c2)c(Br)c1 [Compound 1h] | – | – | – | 25 to 50 µM (≈ 13.2 to 26.5 µg/mL) | Cif inhibitory activity (Cif [2]; at 50 μM or 25 μM): failed to show inhibitory activity
